Measurements published in article PMC4972871, “Optimization of Electrospray Ionization by Statistical Design of Experiments and Response Surface Methodology: Protein–Ligand Equilibrium Dissociation Constant Determinations” (Journal of the American Society for Mass Spectrometry, 2016).

Legend:
[1] = molecular target: T1, Plasmodium vivax guanylate kinase (PvGK) (Plasmodium vivax, UniProt A5K709); assay: native ESI-FT-ICR-MS titration (optimized source); confirmed by competition with GMP ([…]); format: binding
T1 construct: gene PVX_099895; Full-length guanylate kinase with an N-terminal 6-histidine tag (23545 Da)
T1 sequence (A5K709 entry or part of it): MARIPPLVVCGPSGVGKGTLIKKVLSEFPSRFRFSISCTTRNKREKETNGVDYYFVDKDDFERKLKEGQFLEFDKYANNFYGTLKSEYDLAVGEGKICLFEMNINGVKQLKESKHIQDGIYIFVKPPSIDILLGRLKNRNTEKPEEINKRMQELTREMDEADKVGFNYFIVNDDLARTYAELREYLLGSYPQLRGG

[2] = molecular target: T1, Plasmodium vivax guanylate kinase (PvGK); assay: native ESI-FT-ICR-MS titration (optimized source conditions); format: binding

Row | Structure (SMILES) | Kd [1] [nM] | Kd [2] [nM]
1 | Nc1nc2c(ncn2[C@@H]2O[C@H](COP(=O)(O)OP(=O)(O)O)[C@@H](O)[C@H]2O)c(=O)[nH]1 [GDP] | 300 ± 30 | 
2 | Nc1nc2c(ncn2[C@@H]2O[C@H](COP(=O)(O)O)[C@@H](O)[C@H]2O)c(=O)[nH]1 [GMP] |  | 1840 ± 110
